In patent publication US6083957A, “Heterocyclic compounds and their preparation and use” (Novo Nordisk A/S, priority 1996, dated 2000):
pIC50: −log10 of the molar value.

What was measured:
[1] = target: muscarinic acetylcholine receptors; experiment: inhibition of specific binding of 3H-Oxotremorine-M (3H-Oxo), rat cortex homogenate; set-up: species or system male Wistar rats; settings: 1.0 nM 3H-Oxotremorine, pH 7.4, 30 min, 25° C
Text: The pharmacological properties of the compounds of the invention can be illustrated by determining their capability to inhibit the specific binding of ^3 H-Oxotremorine-M (^3 H-Oxo). Birdsdall N. J. M., Hulme E. C., and Burgen A. S. V. (1980). "The Character of Muscarinic Receptors in Different Regions of the Rat Brain". Proc. Roy. Soc. London (Series B) 207,1.
The inhibitory effects of compounds on ^3 H-Oxo binding reflects the affinity for muscarinic acetylcholine receptors.
All preparations are performed at 0-4° C. unless otherwise indicated. Fresh cortex (0.1-1 g) from male Wistar rats (150-250 g) is homogenized for 5-10 s in 10 ml 20 mM Hepes pH: 7.4, with an Ultra-Turrax homogenizer. The homogenizer is rinsed with 10 ml of buffer and the combined suspension centrifuged for 15 min. at 40,000×g. The pellet is washed three times with buffer. In each step the pellet is homogenized as before in 2×10 ml of buffer and centrifuged for 10 min. at 40,000×g.
The final pellet is homogenized in 20 mM Hepes pH: 7.4 (100 ml per g of original tissue) and used for binding assay. Aliquots of 0.5 ml is added 25 ul of test solution and 25 ul of ^3 H-Oxotremorine (1.0 nM, final concentration) mixed and incubated for 30 min. at 25° C. Non-specific binding is determined in triplicate using arecoline (1 ug/ml, final concentration) as the test substance. After incubation samples are added 5 ml of ice-cold buffer and poured directly onto Whatman GF/C glass fiber filters under suction and immediately washed 2 times with 5 ml of ice-cold buffer. The amount of radioactivity on the filters are determined by conventional liquid scintillation counting. Specific binding is total binding minus non specific binding.
Test substances are dissolved in 10 ml water (if necessary heated on a steam-bath for less than 5 min.) at a concentration of 2.2 mg/ml. 25-75% inhibition of specific binding must be obtained before calculation of IC50.
The test value will be given as IC50 (the concentration (nM) of the test substance which inhibits the specific binding of ^3 H-Oxo by 50%).
(§1) IC50 =(applied test substance concentration) [formula] where Co is specific binding in control assays and Cx is the specific binding in the test assay. (The calculations assume normal mass-action kinetics).

[2] = target: T1, subtype of muscarinic receptors (M1-site) (Rattus norvegicus, UniProt P08482); experiment: inhibition of 3H-PRZ (pirenzepine, [N-methyl-3H]) binding to rat cerebral cortex membranes; set-up: species or system male Wistar rats; settings: 1.0 nM 3H-Pirenzepine, pH 7.4, 60 min, 20° C, read-out: IC50, 3H-Pz
T1 construct: from tissue; host or cells: rat cerebral cortex membranes (male Wistar rats)
T1 sequence (P08482 1-460): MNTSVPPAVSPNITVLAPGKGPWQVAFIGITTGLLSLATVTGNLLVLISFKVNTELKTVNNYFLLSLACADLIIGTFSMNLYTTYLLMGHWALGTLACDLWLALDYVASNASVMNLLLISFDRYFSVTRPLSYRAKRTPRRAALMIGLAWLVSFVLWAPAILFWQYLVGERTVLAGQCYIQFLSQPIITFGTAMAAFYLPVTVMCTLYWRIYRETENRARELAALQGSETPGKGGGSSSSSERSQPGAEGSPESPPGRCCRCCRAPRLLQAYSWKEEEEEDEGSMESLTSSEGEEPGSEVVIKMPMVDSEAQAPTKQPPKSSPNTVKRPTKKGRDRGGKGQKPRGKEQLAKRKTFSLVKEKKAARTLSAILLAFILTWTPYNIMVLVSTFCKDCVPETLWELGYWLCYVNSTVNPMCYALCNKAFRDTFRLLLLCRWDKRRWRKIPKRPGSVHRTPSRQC
Text: Furthermore the pharmacological properties of the compounds of the invention can also be illustrated by determining their capability to inhibit ^3 H-PRZ (pirenzepine, [N-methyl-^3 H]) binding to rat cerebral cortex membranes.
Pirenzepine binds selectively to subtype of muscarinic receptors. Historically the type is named the M1 -site, whereas pirenzepine sensitive site would be more appropriate. Although selective for M1 -sites pirenzepine also interact with M2 -sites.
All preparations are performed at 0-4° C. unless otherwise indicated. Fresh cortex (0.1-1 g) from male Wistar rats (150-200 g) is homogenized for 5-10 s. in 10 ml 20 mM Hepes pH: 7.4, with an Ultra-Turraxhomogenizer. The homogenizer is rinzed with 2×10 ml of buffer and the combined suspension centrifuged for 15 min at 40,000 xg. The pellet is washed three times with buffer. In each step the pellet is homogenized as before in 3×10 ml of buffer and centrifuged for 10 min at 40,000 xg.
The final pellet is homogenized in 20 mM Hepes pH: 7.4 (100 ml per g of original tissue) and used for binding assay. Aliquots of 0.5 ml is added 20 μl of test solution and 25 μl of ^3 H-Pirenzepine·(1.0 nM, final conc.), mixed and incubated for 60 min at 20° C. Non-specific binding is determined in triplicate using atropine (1 μg/ml, final conc.) as the test substance. After incubation samples are added 5 ml of ice-cold buffer and poured directly onto Whatman GF/C glass fiber filters inder suction and immediately washed 2 times with 5 ml of ice-cold buffer. The amount of radioactivity on the filters are determined by conventional liquid scintillation counting. Specific binding is total binding minus non-specific binding.
Test substances are dissolved in 10 ml water, at a concentration of 0.22 mg/ml. 25-75% inhibition of specific binding must be obtained before calculation of IC50.
The test value will be given as IC50 (the concentration, nM) of the test substance which inhibits the specific binding of ^3 H-PRZ by 50%.
as §1

| Compound | pIC50 [1] | pIC50 [2] |
| --- | --- | --- |
| CCCCCSc1nsnc1[C@@H]1C[N@@+]2(C)CCC[C@@H]1C2 (relative stereo) [Compound 7, Exo 6-(3-Pentylthio-1,2,5-thiadiazol-4-yl)-1-methyl-1-azabicyclo[3.2.1]octane iodide] | 8.31 | 6.87 |
| C[N+]12CCCC(C1)C(c1nsnc1OCC#Cc1cccs1)C2 (single isomer, unassigned) [Compound 12, Exo(+) 6-(3-(3-(2-Thienyl)-2-propyn-1-yloxy)-1,2,5-thiadiazol-4-yl)-1-azabicyclo[3.2.1]-octane iodide] | 7.20 |  |
| C[N+]12CCCC(C1)C(c1nsnc1SCC#Cc1ccccc1)C2 (single isomer, unassigned) [Compound 13, Exo(+) 6-(3-(3-(3-Phenyl)-2-propyn-1-ylthio)-1,2,5-thiadiazol-4-yl)-1-azabicyclo[3.2.1]-octane iodide] | 7.89 |  |
| CCCCCCSc1nsnc1C1=CCC[N+](C)(C)C1 [Compound 1, 3-(3-Hexylthio-1,2,5-thiadiazol-4-yl)-1,2,5,6-tetrahydro-1,1-dimethylpyridinium iodide] | 8.47 | 8.22 |
| CCOc1nsnc1C1=CCC[N+](C)(C)C1 [Compound 3, 3-(3-Ethoxy-1,2,5-thiadiazol-4-yl)-1,2,5,6-tetrahydro-1,1-dimethylpyridinium iodide] | 9.23 | 8.35 |
| CCCCSc1nsnc1C1C[N+]2(C)CCC1CC2 (centres unmarked) [Compound 4, 3-(3-Butylthio-1,2,5-thiadiazol-4-yl)-1-methyl-1-azabicyclo[2.2.2]octane iodide] | 8.82 | 8.31 |
| CCSc1nsnc1C1=CCC[N+](C)(CC)C1 (centres unmarked) [Compound 8, 3-(3-Ethylthio-1,2,5-thiadiazol-4-yl)-1,2,5,6-tetrahydro-1-ethyl-1-methylpyridinium iodide] | 8.46 | 7.55 |
| CCSc1nsnc1C1=CCC[N+](C)(C)C1 [Compound 9, 3-(3-Ethylthio-1,2,5-thiadiazol-4-yl)-1,2,5,6-tetrahydro-1,1-dimethylpyridinium iodide] | 8.80 | 7.59 |

The remaining molecules from weak to strong by pIC50 [1], led by results:

| pIC50 [1] | pIC50 [2] | Compound |
| --- | --- | --- |
| 7.46 |  | C[N+]12CCCC(C1)C(c1nsnc1OCC#Cc1ccsc1)C2 (single isomer, unassigned) [Compound 11, Exo(+) 6-(3-(3-(3-Thienyl)-2-propyn-1-yloxy)-1,2,5-thiadiazol-4-yl)-1-azabicyclo[3.2.1]-octane iodide] |
| 7.81 | 7.25 | CCOc1nsnc1C1=CCC[N+](C)(CC)C1 (centres unmarked) [Compound 10, 3-(3-Ethoxy-1,2,5-thiadiazol-4-yl)-1,2,5,6-tetrahydro-1-ethyl-1-methyl-pyridinium iodide] |
| 8.32 | 8.64 | CCCCCSc1nsnc1[C@H]1C[N@@+]2(C)CCC[C@@H]1C2 (relative stereo) [Compound 6, Endo 6-(3-Pentylthio-1,2,5-thiadiazol-4-yl)-1-methyl-1-azabicyclo[3.2.1]octane iodide] |
| 8.48 | 8.06 | CCCCSc1nsnc1[C@H]1C[N@@+]2(C)CCC[C@@H]1C2 (relative stereo) [Compound 5, Endo 6-(3-Butylthio-1,2,5-thiadiazol-4-yl)-1-methyl-1-azabicyclo[3.2.1]octane iodide] |
| 8.48 | 8.05 | CCCCCCOc1nsnc1C1=CCC[N+](C)(C)C1 [Compound 2, 3-(3-Hexyloxy-1,2,5-thiadiazol-4-yl)-1,2,5,6-tetrahydro-1,1-dimethylpyridinium iodide] |
